target: recombinant human PAD4 (Homo sapiens (Human), UniProt Q9UM07); assay: RFMS Human PAD4 Functional Assay 2; format: biochemical; conditions: RFMS assay 2; 35 nM recombinant human PAD4, 500 μM TSTGGRQGSHH peptide, 2 mM CaCl2, room temperature 30 minutes; read-out: hPAD4 RFMS IC50
Experimental: RFMS Human PAD4 Functional Assay 2: Compound Preparation: • Stock compounds were dissolved and stored in 100% DMSO. Compound solutions were prepared via serial dilution at 3-fold intervals in DMSO with top compound concentration at 20 μM in each assay. 0.25 μl of compound solution was transferred from the compound plate to the assay plate by using an acoustic dispenser. Final Assay Conditions: • Total reaction volume: 25 μl • Assay buffer: […] pH 7.4, 200 mM NaCl, 2 mM CaCl2, 5 mM DTT • 35 nM recombinant human PAD4 • 500 μM TSTGGRQGSHH peptide • […] DMSO • Stop solution: 10% formic acid
Reaction mixtures were incubated at room temperature for 30 minutes. 10 μl each of the reaction mixtures was then mixed with 40 μl of 10% formic acid in a microtiter plate. The plate was frozen at −80° C. before shipping out on dry ice for RapidFire mass spectroscopy analysis.
Thawed samples were loaded onto the Rapid Fire 300 system (Agilent) wherein they were first sipped for 250 ms and then loaded onto an Agilent “C” (C18) cartridge using a mobile phase of water containing 0.09% formic acid/0.01% trifluoroacetic acid for 3000 ms desalting flowing at a rate of 1.5 ml/min. Once the samples were loaded and washed, a mobile phase of acetonitrile containing 0.09% formic acid/0.01% trifluoroacetic acid was used to elute the samples directly onto a Sciex API4000 triple quadrupole mass spectrometer for 3000 ms at a flow rate of 1.25 ml/min.
MRM transitions for substrate and product were monitored in positive ESI mode at m/z=562.3/969.7 and m/z=562.8/541.3 respectively. The dwell time for each transition was set at 100 ms, and the ESI voltage was used at 5500 with a source temperature of 650° C. Extracted ion peaks for each transition were integrated using the Rapid Fire Integrator software.

recombinant human PAD4, sequence (Q9UM07 whole entry): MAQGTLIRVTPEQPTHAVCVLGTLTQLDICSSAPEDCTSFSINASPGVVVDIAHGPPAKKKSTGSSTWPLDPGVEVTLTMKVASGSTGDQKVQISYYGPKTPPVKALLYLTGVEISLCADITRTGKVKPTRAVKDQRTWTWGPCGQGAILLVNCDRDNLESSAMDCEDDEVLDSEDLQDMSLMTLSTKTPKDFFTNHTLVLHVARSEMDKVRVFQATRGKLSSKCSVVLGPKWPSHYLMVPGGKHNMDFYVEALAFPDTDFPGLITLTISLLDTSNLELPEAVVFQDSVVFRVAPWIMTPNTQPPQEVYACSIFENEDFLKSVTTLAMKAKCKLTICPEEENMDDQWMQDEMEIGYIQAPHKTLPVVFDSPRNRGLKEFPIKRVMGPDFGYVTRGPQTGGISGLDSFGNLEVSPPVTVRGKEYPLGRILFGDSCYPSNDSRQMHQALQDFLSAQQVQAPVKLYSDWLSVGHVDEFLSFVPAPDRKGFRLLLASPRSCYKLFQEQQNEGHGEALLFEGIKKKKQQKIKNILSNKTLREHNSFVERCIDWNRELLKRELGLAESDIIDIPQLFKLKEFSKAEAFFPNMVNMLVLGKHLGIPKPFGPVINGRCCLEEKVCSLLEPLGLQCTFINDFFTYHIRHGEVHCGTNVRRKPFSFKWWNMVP

Structure (SMILES) | IC50 [nM]
COc1cc(C(=O)N2C[C@H](N)C[C@@H](F)C2)cc2oc(-c3cc4cccc(OCC5CN(C)C5)c4n3CC3CC3)c(CCO)c12 [Example 637, ((3R,5R)-3-amino-5-fluoropiperidin-1-yl)(2-(1-(cyclopropylmethyl)-7-((1-methylazetidin-3-yl)methoxy)-1H-indol-2-yl)-3-(2-hydroxyethyl)-4-methoxybenzofuran-6-yl)methanone] | 621
COc1cc(C(=O)N2C[C@H](N)C[C@@H](F)C2)cc2oc(-c3cc4cccc(OCC5COC5)c4n3CC3CC3)c(CCO)c12 [Example 638, ((3R,5R)-3-amino-5-fluoropiperidin-1-yl)(2-(1-(cyclopropylmethyl)-7-(oxetan-3-ylmethoxy)-1H-indol-2-yl)-3-(2-hydroxyethyl)-4-methoxybenzofuran-6-yl)methanone] | 295
COc1cc(C(=O)N2C[C@H](N)C[C@@H](F)C2)cc2oc(-c3cc4cccc(OCc5ncno5)c4n3CC3CC3)c(CCO)c12 [Example 639, (2-(7-((1,2,4-oxadiazol-5-yl)methoxy)-1-(cyclopropylmethyl)-1H-indol-2-yl)-3-(2-hydroxyethyl)-4-methoxybenzofuran-6-yl)((3R,5R)-3-amino-5-fluoropiperidin-1-yl)methanone] | 243

Reference: patent publication US12473304B2, “Heterocyclic PAD4 inhibitors” (BRISTOL-MYERS SQUIBB COMPANY, priority 2020, dated 2025)
